Laboratory results reported in US11338004B2, “Composition for preventing or treating cranial nerve disease comprising fomes fomentarius extract, fraction thereof, or compound isolated therefrom as active ingredient” (priority 2015, dated 2022).

What was measured:
[1] = DPPH radical scavenging activity
Description: The present experiment used the property that the hydrazyl of diphenylpicrylhydrazyl (DPPH) used in the present experiment has a property of easily accepting a hydrogen atom since the nitrogen atom is unstable, so as to react with the antioxidant material to accept the hydrogen atom to lose its own orthochromatism.
(§1) First, in order to measure DPPH radical scavenging activity of the Fomes fomentarius fraction, 1.9 ml of 0.2 mM DPPH solution (99.5% ethanol) was added to 0.1 ml of solutions (control: 99.5% ethanol) in which the concentrated dried material of each Fomes fomentarius substance was prepared at 7 concentrations of 10, 20, 40, 80, 160, 320 and 640 μg/ml, respectively. The mixture was shaken with a vortex mixer for 10 seconds and then incubated at 37° C. for 30 minutes. Then, the absorbance was measured at 517 nm using a spectrophotometer.
As a positive control drug, L-ascorbic acid was prepared at […] of 10, 20, 40, 80, 160, 320, and 640 μg/mL (99.5% ethanol).
The present inventors measured DPPH radicals scavenging activity in the same manner as in Example <2-2> above using nonadecanone (2-nonadecanone) and docosenol (cis-13-Docosenol) compounds found in the above and Fomes fomentarius CHCl3 fraction of the present disclosure.
as §1, with “Acer tegmentosum maxim extract,” for “Fomes fomentarius fraction,”, “Acer tegmentosum maxim material” for “Fomes fomentarius substance”
As a positive control, L-ascorbic acid was prepared at […] of 10, 20, 40, 80, 160, 320, and 640 μg/mL (99.5% ethanol).
as §1, with “berchemia berchemiaefolia extract,” for “Fomes fomentarius fraction,”, “berchemia berchemiaefolia material” for “Fomes fomentarius substance”
as §1, with “Lithospermum erythrorhizon extract,” for “Fomes fomentarius fraction,”, “Lithospermum erythrorhizon material” for “Fomes fomentarius substance”

AChE = AChE (Homo sapiens, UniProt P22303); test: Acetylcholinesterase inhibitory activity; assay type: biochemical; conditions: read-out: acetylcholinesterase inhibitory activity (%)
Sequence of AChE (P22303 32-614): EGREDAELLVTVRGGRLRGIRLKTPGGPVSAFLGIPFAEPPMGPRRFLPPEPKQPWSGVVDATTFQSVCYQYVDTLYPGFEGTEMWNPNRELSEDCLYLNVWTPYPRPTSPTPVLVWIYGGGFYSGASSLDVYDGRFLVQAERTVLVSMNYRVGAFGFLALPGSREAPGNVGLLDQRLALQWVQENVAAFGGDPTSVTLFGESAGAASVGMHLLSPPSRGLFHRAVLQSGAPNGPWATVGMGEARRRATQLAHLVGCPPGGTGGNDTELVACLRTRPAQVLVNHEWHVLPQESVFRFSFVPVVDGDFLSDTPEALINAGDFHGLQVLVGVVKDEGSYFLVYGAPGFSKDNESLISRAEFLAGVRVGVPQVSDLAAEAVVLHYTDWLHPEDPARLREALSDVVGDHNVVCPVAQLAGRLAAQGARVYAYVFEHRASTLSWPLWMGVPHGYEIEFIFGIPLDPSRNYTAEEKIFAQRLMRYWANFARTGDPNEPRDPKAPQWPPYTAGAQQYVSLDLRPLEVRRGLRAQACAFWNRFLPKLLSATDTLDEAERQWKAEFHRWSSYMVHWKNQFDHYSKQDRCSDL
Description: AChE and acetylthocholine iodine (ATC) were dissolved in 100 mM phosphate buffer (pH 8.0) to prepare 0.25 U/mL and 75 mM, respectively. […] 2.8 mL of phosphate buffer (100 mM, pH 8.0), 30 μL of AChE (0.25 U/mL), and 100 μL of DTNB were added to 30 μL of the extract, and were mixed. Then, the mixture was preincubated at 37° C. for 10 minutes. Then, 30 μL of substrate ATC was added thereto and was reacted at 37° C. for 3 minutes, and then the absorbance was measured at 412 nm. As a control group, 30 μL of 100 mM phosphate buffer (pH 8.0) was added instead of the extract, and then was measured.

xanthine oxidase = xanthine oxidase (Homo sapiens, UniProt P47989); test: Xanthine oxidase inhibitory activity; assay type: biochemical
Sequence of xanthine oxidase (P47989 whole entry, species assumed): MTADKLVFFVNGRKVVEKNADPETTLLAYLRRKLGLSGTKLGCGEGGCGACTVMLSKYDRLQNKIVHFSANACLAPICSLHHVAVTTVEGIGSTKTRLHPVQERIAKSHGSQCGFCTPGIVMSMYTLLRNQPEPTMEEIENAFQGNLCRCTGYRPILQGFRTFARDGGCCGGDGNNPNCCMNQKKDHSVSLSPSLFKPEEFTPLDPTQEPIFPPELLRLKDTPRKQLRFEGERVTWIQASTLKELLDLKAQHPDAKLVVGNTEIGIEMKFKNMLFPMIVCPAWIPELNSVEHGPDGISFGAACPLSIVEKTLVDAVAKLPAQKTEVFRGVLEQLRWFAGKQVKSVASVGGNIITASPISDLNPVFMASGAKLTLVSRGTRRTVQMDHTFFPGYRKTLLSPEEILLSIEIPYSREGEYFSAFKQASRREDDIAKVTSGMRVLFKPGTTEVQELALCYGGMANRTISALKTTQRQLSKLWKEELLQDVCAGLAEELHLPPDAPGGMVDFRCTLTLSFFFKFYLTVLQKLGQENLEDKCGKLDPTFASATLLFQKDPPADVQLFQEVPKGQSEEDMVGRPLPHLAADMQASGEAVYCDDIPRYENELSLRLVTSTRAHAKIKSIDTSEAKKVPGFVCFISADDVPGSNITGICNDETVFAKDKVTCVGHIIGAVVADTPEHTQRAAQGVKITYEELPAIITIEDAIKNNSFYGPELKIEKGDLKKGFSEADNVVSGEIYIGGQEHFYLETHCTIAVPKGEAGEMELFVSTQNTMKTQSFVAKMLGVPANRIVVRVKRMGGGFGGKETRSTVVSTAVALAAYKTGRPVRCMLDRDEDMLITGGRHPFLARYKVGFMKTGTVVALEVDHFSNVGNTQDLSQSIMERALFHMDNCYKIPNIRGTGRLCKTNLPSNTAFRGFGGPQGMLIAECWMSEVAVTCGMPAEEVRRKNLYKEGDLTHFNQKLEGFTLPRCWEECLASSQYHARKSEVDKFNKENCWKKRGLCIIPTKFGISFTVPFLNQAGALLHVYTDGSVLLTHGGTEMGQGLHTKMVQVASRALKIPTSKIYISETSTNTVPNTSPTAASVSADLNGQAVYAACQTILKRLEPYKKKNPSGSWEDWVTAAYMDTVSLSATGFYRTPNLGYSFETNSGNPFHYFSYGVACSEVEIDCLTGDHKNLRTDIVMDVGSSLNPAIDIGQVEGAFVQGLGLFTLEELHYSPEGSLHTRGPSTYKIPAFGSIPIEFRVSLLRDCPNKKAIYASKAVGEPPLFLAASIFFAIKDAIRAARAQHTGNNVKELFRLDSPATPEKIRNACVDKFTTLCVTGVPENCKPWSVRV
Description: 0.2 ml of the substrate solution in which 2 mM xanthine was dissolved was added to 0.1 ml of a sample solution and 0.6 ml of 0.1 M potassium phosphate buffer at pH 7.5, and 0.1 ml of 0.2 unit/ml xanthine oxidase was added thereto, followed by reaction at 37° C. for 5 minutes. Then, 1 ml of 1N HCl was added to terminate the reaction, and then the absorbance of the uric acid produced in the reaction solution was measured at 292 nm. The inhibitory activity of xanthine oxidase was shown by the absorbance reduction rate of the addition group and the non-addition group of the sample solution.
Xanthine oxidase acts as a rate-limiting enzyme in the terminal oxidation of all purines and is an enzyme that acts as a source of oxidizing agents such as superoxide radicals and hydrogen peroxide. The superoxide anion inhibition by xanthine/xanthine oxidase enzymes is shown by superoxide anion scavenging activity and xanthine oxidase inhibition and has biologically important meaning through inhibition of gout and formation of free radicals. The superoxide radical scavenging effects of 10, 20, 40, 80, 160, 320, and 640 μg mL-1 of each fraction extract of the Fomes fomentarius were compared using butylated hydroxy anisole (BHA) as a positive control group.
The superoxide radical scavenging effects of 10, 20, 40, 80, 160, 320, and 640 μg mL-1 of the Acer tegmentosum maxim extract were compared using butylated hydroxy anisole (BHA) as a positive control group.
The superoxide radical scavenging effects of 10, 20, 40, 80, 160, 320, and 640 μg mL-1 of the berchemia berchemiaefolia extract were compared using butylated hydroxy anisole (BHA) as a positive control group.
The superoxide radical scavenging effects of 10, 20, 40, 80, 160, 320, and 640 μg mL-1 of the Lithospermum erythrorhizon extract were compared using butylated hydroxy anisole (BHA) as a positive control group.

In the case of `O=C1O[C@H]([C@@H](O)CO)C(O)=C1O` [ascorbic acid, L-ascorbic acid, reference compound], the “DPPH radical scavenging activity (% antioxidant activity)” value ([1]; 10 μg/mL) is reported as 70.5±4.5% and about 70.5%, the “DPPH radical scavenging activity (% antioxidant activity)” value ([1]; 20 μg/mL) is reported as 71.8±12.5% and about 71.8% and the “DPPH radical scavenging activity (% antioxidant activity)” value ([1]; 40 μg/mL) is reported as 74.1±8.2% and about 74.1%. For the same molecule, the “DPPH radical scavenging activity (% antioxidant activity)” value ([1]; 80 μg/mL) was 77.8±7.6% and about 77.8%, the “DPPH radical scavenging activity (% antioxidant activity)” value ([1]; 160 μg/mL) was 80.6±4.5% and about 80.6% and the “DPPH radical scavenging activity (% antioxidant activity)” value ([1]; 320 μg/mL) was 83.2±9.6% and about 83.2%. For the same molecule, the “DPPH radical scavenging activity (% antioxidant activity)” value ([1]; 640 μg/mL) was 84.5±7.7% and about 84.5%, the inhibition at 10 µg/mL (AChE) was 35.8 ± 3.5% and the inhibition at 20 µg/mL (AChE) was 45.1 ± 4.5%. For the same molecule, the inhibition at 40 µg/mL (AChE) was 51.8 ± 6.5%, the inhibition at 80 µg/mL (AChE) was 61.1 ± 4.1% and the inhibition at 160 µg/mL (AChE) was 61.9 ± 3.8%. It also gave an inhibition at 320 µg/mL (AChE) of 76.1 ± 4.6%, an inhibition at 640 µg/mL (AChE) of 87.9 ± 5.6% and an inhibition at 10 µg/mL (xanthine oxidase; 10 μg/mL) of 24.1 ± 1.8%. For the same molecule, the inhibition at 20 µg/mL (xanthine oxidase; 20 μg/mL) was 35.1 ± 2.5%, the inhibition at 40 µg/mL (xanthine oxidase; 40 μg/mL) was 58.1 ± 0.9% and the inhibition at 80 µg/mL (xanthine oxidase; 80 μg/mL) was 68.1 ± 1.1%. For the same molecule, the inhibition at 160 µg/mL (xanthine oxidase; 160 μg/mL) was 76.1 ± 2.5%, the inhibition at 320 µg/mL (xanthine oxidase; 320 μg/mL) was 83.5 ± 3.5% and the inhibition at 640 µg/mL (xanthine oxidase; 640 μg/mL) was 85.6 ± 2.8%.
For `COc1ccc(O)c(C(C)(C)C)c1` [BHA, butylated hydroxyanisole], the “xanthine oxidase inhibitory activity” value (xanthine oxidase; 10 μg/mL) was 24.1±0.1, the “xanthine oxidase inhibitory activity” value (xanthine oxidase; 20 μg/mL) was 35.8±0.3 and the “xanthine oxidase inhibitory activity” value (xanthine oxidase; 40 μg/mL) was 58.1±0.4. For the same molecule, the “xanthine oxidase inhibitory activity” value (xanthine oxidase; 80 μg/mL) was 68.1±0.5, the “xanthine oxidase inhibitory activity” value (xanthine oxidase; 160 μg/mL) was 76.1±0.8 and the “xanthine oxidase inhibitory activity” value (xanthine oxidase; 320 μg/mL) was 83.5±1.2. The “xanthine oxidase inhibitory activity” value (xanthine oxidase; 640 μg/mL) was 85.6±1.3 and the “xanthine oxidase inhibition of the positive control group” value (xanthine oxidase; concentration not stated (Example 2-18)) was 94.1%.
